Measured values as given in patent US6306897A, “Calanolides for inhibiting BTK” (Parker Hughes Institute, priority 1999, dated 2001).
pIC50: −log10 of the molar value.

Legend:
recombinant BTK = molecular target: T1, recombinant BTK (Mus musculus, UniProt P35991); assay: Recombinant BTK immune-complex kinase assay (baculovirus vector expression system); format: biochemical, murine; details: for inhibition of recombinant BTK, concentration dependence: BTK expressed in a baculovirus vector expression system; for pIC50: recombinant BTK, kinase assay (Table 1)
T1 construct: made in house; host or cells: Insect cells (Sf21, IPLB-SF21-AE) with recombinant baculovirus from pFastBac1-BTK
Procedure: The effects of calanolides on the enzymatic activity of the tyrosine kinase BTK in kinase assays was evaluated using recombinant BTK, according to the methods previously reported (Mahajan et al., 1999, J Biol. Chem., 274:9587-9599).
Sf21 (IPLB-SF21-AE) cells, derived from the ovarian tissue of the fall armyworm Spodotera frugiperda, were obtained from Invitrogen and maintained at 26-28° C. in Grace's insect cell medium supplemented with 10% FBS and 1.0% antibiotic/antimycotic (GIBCO-BRL). Stock cells were maintained in suspension at 0.2-1.6×10^6 /ml in 600 ml total culture volume in 1 L Bellco spinner flasks at 60-90 rpm. Cell viability was maintained at 95-100% as determined by trypan blue dye exclusion.
To construct the recombinant baculovirus containing the murine BTK gene, the gene encoding BTK was excised from pBluescript SKII^+ vector (Stratagene) by digestion with BamHI. This fragment was then ligated into pFastBac1 (Gibco-BRL). The resulting vector, pFastBac1-BTK, was used to generate the recombinant baculovirus by site-specific transposition in E. coli DH10Bac cells (Gibco-BRL), which harbor a baculovirus shuttle vector (bacmid), bMON14272. The resulting recombinant bacmid DNA was introduced into insect cells by transfection with the standard liposome-mediated method using Cellfectin reagent (Gibco-BRL). Four days later, transfection supernatants were harvested for subsequent plaque purification and analyzed.
Immunoprecipitations, immune-complex protein kinase assays, and immunoblotting using the ECL chemiluminescence detection system (Amersham Life Sciences) were conducted as described previously (Mahajan et al., 1999, J. Biol. Chem., 274:9587-9599). Following electrophoresis, kinase gels were dried onto Whatman 3M filter paper and subjected to phosphoimaging on a Molecular Imager (Bio-Rad, Hercules, Calif.) as well as autoradiography on film. Similarly, all chemiluminescent BTK Western blots were subjected to three dimesional densitometric scanning using the Molecular Imager and Imaging Densitometer using the Molecular Analyst/Macontosh version 2.1 software following the specifications of the manufacturer (Bio-Rad). For each drug concentration, a BTK kinase activity index was determined by comparing the ratios of the kinase activity in phosphorimager units (PIU) and density of the protein bands in densitometric scanning units (DSU) to those of the baseline sample and using the formula: Activity Index=[PIU of kinase band/DSU of BTK protein band]test sample :[PIU of kinase band/DSU of BTK protein band]baseline control sample. Horse radish peroxidase-conjugated sheep anti-mouse, donkey anti-rabbit secondary antibodies and ECL reagents were purchased from Amersham (Oakbrook, Ill.).

RBL-2H3 mast cells [1] = assay: β-hexosaminidase release from IgE/antigen stimulated RBL-2H3 mast cells; format: cell-based; details: 1 hour preincubation, IgE/DNP-BSA challenge 30 minutes
Procedure: (§1) RBL-2H3 cells were sensitized with monoclonal anti-DNP IgE antibody (0.24 mg/ml) for 1 hour at 37° C. in a 48-well tissue culture plate. RBL-2H3 cells were allowed to adhere to the plate, whereas bone marrow mast cells (BMMC) were used in suspension. Unbound IgE was removed by washing the cells with phosphate buffered saline. After washing the BMMC were re-suspended in RPMI-hepes buffer. PIPES-buffered saline containing 1 mM calcium chloride was added to the monolayers of the RBL-2H3 cells.
(§2) To study the effects of compound HI-D12, mast cells were incubated with compound HI-D12 at the indicated concentrations or vehicle for 1 hour prior to challenge. The cells were challenged with 20 ng/ml DNP-BSA for 30 minutes at 37° C. The plate was then centrifuged at 200 g for 10 minutes at 4° C. Supernatants were removed and saved. RBL-2H3 cell pellets were washed with phosphate buffered saline and solubilized in PIPES buffered saline containing 0.1% Triton X-100.
(§3) Leukotriene (LT) C4 levels were estimated in cell free supernatants by immunoassay using (LT) C4 ELISA kits obtained from Cayman Company (Ann Arbor, Mich.), according to the manufacturer instructions. β-hexosaminidase release was estimated in cell free supernatants and Triton X-100 solubilized pellets, using the method described in Ozawa et al, 1993, J. Biol. Chem., 268:1749-1756.

RBL-2H3 mast cells [2] = assay: Leukotriene C4 release from IgE/antigen stimulated RBL-2H3 mast cells (LTC4 ELISA); format: cell-based; details: 1 hour preincubation, IgE/DNP-BSA challenge 30 minutes
Procedure: as §1, §2, §3

BALB/c mice = assay: Passive cutaneous anaphylaxis in mice (Evans blue dye extravasation); format: in vivo
Procedure: In order to examine the effect of HI-D12 on passive cutaneous anaphylaxis in mice, dorsal sides of the ears of BALB/c mice were injected intradermally with 20 ng of DNP-IgE (left ears) or PBS (right ears) in 20 μL volume using a 30-gauge needle, as previously described (Miyajima et. al., 1997, J. Clin. Invest. 99:901-914). After 20 hours, mice were treated with compound HI-D12 (15 or 50 mg/kg i.p.) twice at 1 hour intervals prior to the antigen challenge. Control mice were treated with an equal volume of vehicle. Thirty minutes after the last dose of compound HI-D12 or vehicle, mice were challenged with 100 μg antigen (DNP-BSA) in 200 μl 2% Evans blue dye intravenously. Mice were sacrificed by cervical dislocation 30 minutes after the antigen challenge. For quantitation of Evans blue dye extravasation as a measure of anaphylaxis-associated vascular hyperpermeability, 8 mm skin specimens were removed from the ears of mice, minced in 2 ml formamide and incubated at 80° C. for 2 hours in water bath to extract the dye. The absorbance was read at […]. The data were expressed as plasma exudation indices (i.e., times increase in optical density over PBS treated ears at 620 nm).

T1 sequence (P35991 whole entry): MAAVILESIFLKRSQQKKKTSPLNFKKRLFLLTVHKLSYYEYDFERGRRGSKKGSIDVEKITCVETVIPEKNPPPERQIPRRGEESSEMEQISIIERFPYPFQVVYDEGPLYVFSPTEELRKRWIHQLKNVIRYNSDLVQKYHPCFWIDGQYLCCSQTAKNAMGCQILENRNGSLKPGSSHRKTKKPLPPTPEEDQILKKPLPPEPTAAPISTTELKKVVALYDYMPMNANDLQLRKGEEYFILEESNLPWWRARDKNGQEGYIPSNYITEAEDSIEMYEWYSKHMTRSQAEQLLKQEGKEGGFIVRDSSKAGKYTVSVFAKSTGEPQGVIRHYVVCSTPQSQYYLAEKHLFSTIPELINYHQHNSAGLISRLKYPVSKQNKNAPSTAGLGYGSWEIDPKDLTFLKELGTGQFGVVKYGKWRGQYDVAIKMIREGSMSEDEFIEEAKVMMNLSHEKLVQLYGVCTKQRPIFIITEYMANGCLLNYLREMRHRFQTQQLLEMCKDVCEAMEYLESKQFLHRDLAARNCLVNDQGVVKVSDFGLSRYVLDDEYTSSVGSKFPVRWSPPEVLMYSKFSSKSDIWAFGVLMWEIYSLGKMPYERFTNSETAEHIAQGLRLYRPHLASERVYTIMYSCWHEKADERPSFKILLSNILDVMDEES

Row | SMILES | inhibition of recombinant BTK, concentration dependence (recombinant BTK) | pIC50 (recombinant BTK) | effect on release of preformed granule-associated β-hexosaminidase (RBL-2H3 mast cells [1]) | inhibition of LTC4 release (RBL-2H3 mast cells [2]) | tolerability of dose level (BALB/c mice; 50 mg/kg dose level) | inhibition of IgE/antigen induced plasma exudation (BALB/c mice; 50 mg/kg i.p., twice prior to antigen challenge) [%]
1 | CCCc1cc(=O)oc2c3c(c4c(c12)OC(C)(C)C=C4)O[C@H](C)[C@@H](C)[C@@H]3O (relative stereo) [HI-D63, (±)-Calanolide A] | in a concentration-dependent fashion | 3.89 |  |  |  | 
2 | CCCc1cc(=O)oc2c3c(c4c(c12)OC(C)(C)C=C4)O[C@H](C)[C@@H](C)C3=O (relative stereo) [HI-D86, 10,11-trans-Dihydro-6,6,10,11-tetramethyl-4-propyl-2H,6H,12H-benzo[2-b: 3,4-b':5,6-b"]tripyran-2,12-dione] | in a concentration-dependent fashion | 3.96 |  |  |  | 
3 | CCCc1cc(=O)oc2c(C(=O)CC)c(O)c3c(c12)OC(C)(C)C=C3 [HI-D12, 6,6 Dimethyl-9-hydroxy-10-propionyl-4-propyl-2H,6H-benzo[1,2-b: 3,4-b']dipyran-2-one] | in a concentration-dependent fashion | 4.54 | did not prevent the release of preformed granule-associated β-hexosaminidase | inhibited the release of the newly synthesized arachidonic acid metabolite LTC4 in a concentration-dependent fashion | nontoxic | 70
